This note sets out measurements from US12622859B2, “Organic compounds” (GIVAUDAN SA, priority 2017, dated 2026).

One data set is described as follows: Solubility in water. Type of data set: physicochemical. The text has this:
(§1) Consequently, the extract is preferably obtained by extracting the compounds from plant material using an alcohol, and more particularly ethanol. It is particularly preferred if the alcohol is water-free.

A short description of a further data set: Stability in water. Type of data set: physicochemical.
Source text: as §1

Consider `C[C@@H]1O[C@@H](O[C@@H]2[C@H]3O[C@@H](c4ccc(O)c(O)c4)CO[C@@H]3O[C@H](CO)[C@H]2OC(=O)/C=C/c2ccc(O)c(O)c2)[C@H](O)[C@H](O)[C@H]1O` [crenatoside], for which, in “Solubility in water”, the solubility in water result is listed as “water-soluble”. Moreover, the stability in water result in the data set “Stability in water” was “unstable in water”.
For `C[C@@H]1O[C@@H](O[C@@H]2[C@@H](O)[C@H](OCCc3ccc(O)c(O)c3)O[C@H](CO)[C@H]2OC(=O)/C=C/c2ccc(O)c(O)c2)[C@H](O)[C@H](O)[C@H]1O` [acteoside], in the data set “Solubility in water”, the solubility in water result is “water-soluble”. In addition, the stability in water result in “Stability in water” is recorded as “unstable in water”.
